# From ChEMBL document CHEMBL4308841, “Synthesis, in vitro antiproliferative activity, and kinase inhibitory effects of pyrazole-containing diarylureas and diarylamides” (Eur J Med Chem, 2018)
# Assays:
# HT-29 = test: Growth inhibition of human HT-29 cells assessed as cell growth at 0.1 uM incubated for 48 hrs by sulforhodamine B assay relative to control; format: functional; settings: HT-29, 48 h, read-out: Activity
# MCF7 = test: Growth inhibition of human MCF7 cells assessed as cell growth at 1 uM incubated for 48 hrs by sulforhodamine B assay relative to control; format: functional; settings: MCF7, 48 h, read-out: Activity
# SNB-75 = test: Growth inhibition of human SNB75 cells assessed as cell growth at 1 uM incubated for 48 hrs by sulforhodamine B assay relative to control; format: functional; settings: SNB-75, 48 h, read-out: Activity
# MOLT-4 [1] = test: Growth inhibition of human MOLT4 cells assessed as cell growth at 100 uM incubated for 48 hrs by sulforhodamine B assay relative to control; format: functional; settings: MOLT-4, 48 h, read-out: Activity
# PC-3 = test: Growth inhibition of human PC3 cells incubated for 48 hrs by sulforhodamine B assay; format: functional, cell-based; settings: PC-3, 48 h
# SR = test: Growth inhibition of human SR cells assessed as cell growth at 100 uM incubated for 48 hrs by sulforhodamine B assay relative to control; format: functional; settings: read-out: Activity
# MDA-MB-468 = test: Growth inhibition of human MDA-MB-468 cells assessed as cell growth at 0.1 uM incubated for 48 hrs by sulforhodamine B assay relative to control; format: functional; settings: MDA-MB-468, 48 h, read-out: Activity
# HL-60(TB) = test: Growth inhibition of human HL-60(TB) cells assessed as cell growth at 0.1 uM incubated for 48 hrs by sulforhodamine B assay relative to control; format: functional; settings: HL-60, 48 h, read-out: Activity
# UACC-62 [2] = test: Growth inhibition of human UACC62 cells incubated for 48 hrs by sulforhodamine B assay; format: functional, cell-based; settings: UACC-62, 48 h
# OVCAR-4 [3] = test: Growth inhibition of human OVCAR4 cells assessed as cell growth at 1 uM incubated for 48 hrs by sulforhodamine B assay relative to control; format: functional; settings: OVCAR-4, 48 h, read-out: Activity
# OVCAR-4 [4] = test: Growth inhibition of human OVCAR4 cells assessed as cell growth at 0.01 uM incubated for 48 hrs by sulforhodamine B assay relative to control; format: functional; settings: OVCAR-4, 48 h, read-out: Activity
# NCI-H460 [5] = test: Growth inhibition of human NCI-H460 cells incubated for 48 hrs by sulforhodamine B assay; format: functional, cell-based; settings: NCI-H460, 48 h
# M14 = test: Growth inhibition of human M14 cells assessed as cell growth at 0.1 uM incubated for 48 hrs by sulforhodamine B assay relative to control; format: functional; settings: M14, 48 h, read-out: Activity
# NCI-H460 [6] = test: Growth inhibition of human NCI-H460 cells assessed as cell growth at 100 uM incubated for 48 hrs by sulforhodamine B assay relative to control; format: functional; settings: NCI-H460, 48 h, read-out: Activity
# Malme-3M = test: Growth inhibition of human MALME-3M cells incubated for 48 hrs by sulforhodamine B assay; format: functional, cell-based
# K562 = test: Growth inhibition of human K562 cells incubated for 48 hrs by sulforhodamine B assay; format: functional, cell-based; settings: K562, 48 h
# MOLT-4 [7] = test: Growth inhibition of human MOLT4 cells assessed as cell growth at 1 uM incubated for 48 hrs by sulforhodamine B assay relative to control; format: functional; settings: MOLT-4, 48 h, read-out: Activity
# MDA-MB-231 = test: Growth inhibition of human MDA-MB-231 cells assessed as cell growth at 0.1 uM incubated for 48 hrs by sulforhodamine B assay relative to control; format: functional; settings: MDA-MB-231, 48 h, read-out: Activity
# HCT-15 = test: Growth inhibition of human HCT15 cells assessed as cell growth at 100 uM incubated for 48 hrs by sulforhodamine B assay relative to control; format: functional; settings: HCT-15, 48 h, read-out: Activity
# HCC 2998 = test: Growth inhibition of human HCC2998 cells assessed as cell growth at 100 uM incubated for 48 hrs by sulforhodamine B assay relative to control; format: functional; settings: HCC 2998, 48 h, read-out: Activity
# LOX IMVI = test: Growth inhibition of human LOXIMVI cells assessed as cell growth at 1 uM incubated for 48 hrs by sulforhodamine B assay relative to control; format: functional; settings: read-out: Activity
# UACC-62 [8] = test: Growth inhibition of human UACC62 cells assessed as cell growth at 100 uM incubated for 48 hrs by sulforhodamine B assay relative to control; format: functional; settings: UACC-62, 48 h, read-out: Activity
# NCI-H522 = test: Growth inhibition of human NCI-H522 cells assessed as cell growth at 0.1 uM incubated for 48 hrs by sulforhodamine B assay relative to control; format: functional; settings: NCI-H522, 48 h, read-out: Activity
# A549 = test: Growth inhibition of human A549/ATCC cells assessed as cell growth at 1 uM incubated for 48 hrs by sulforhodamine B assay relative to control; format: functional; settings: A549, 48 h, read-out: Activity
# NCI-H226 = test: Growth inhibition of human NCI-H226 cells assessed as cell growth at 0.1 uM incubated for 48 hrs by sulforhodamine B assay relative to control; format: functional; settings: NCI-H226, 48 h, read-out: Activity
# U-251 = test: Growth inhibition of human U251 cells assessed as cell growth at 1 uM incubated for 48 hrs by sulforhodamine B assay relative to control; format: functional; settings: U-251, 48 h, read-out: Activity
# KM12 = test: Growth inhibition of human KM12 cells incubated for 48 hrs by sulforhodamine B assay; format: functional, cell-based; settings: KM12, 48 h
# CCRF-CEM = test: Growth inhibition of human CCRF-CEM cells incubated for 48 hrs by sulforhodamine B assay; format: functional, cell-based
# A498 = test: Growth inhibition of human A498 cells assessed as cell growth at 100 uM incubated for 48 hrs by sulforhodamine B assay relative to control; format: functional; settings: A498, 48 h, read-out: Activity
# [9] = read-out: LC50 (the source's name)
# [10] = read-out: pLC50 (the source's name) (converted)
compound,measurement,setting,value
COc1cc(Cl)cc(-c2nn(-c3cccc(NC(=O)c4cccc(C(F)(F)F)c4)c3)cc2-c2ccncc2)c1,growth at 0.1 µM,HT-29,93%
same,growth at 1 µM,MCF7,57%
same,growth at 1 µM,SNB-75,70%
same,growth at 100 µM,MOLT-4 [1],27%
same,IC50,PC-3,2.71 µM
same,GI50,PC-3; read-out: GI50,2.71 µM
same,CC50,PC-3; [9],> 100 µM
same,TGI,PC-3; read-out: TGI,> 100 µM
same,GI50,PC-3; read-out: pGI50 (converted),2.69 µM
same,CC50,PC-3; [10],> 100 µM
same,TGI,PC-3; read-out: pTGI (converted),> 100 µM
same,growth at 100 µM,SR,15%
same,growth at 0.1 µM,MDA-MB-468,85%
same,growth at 0.1 µM,HL-60(TB),90%
same,IC50,UACC-62 [2],8.04 µM
same,GI50,UACC-62 [2]; read-out: GI50,0.04 µM
same,CC50,UACC-62 [2]; [9],> 100 µM
same,TGI,UACC-62 [2]; read-out: TGI,> 100 µM
same,GI50,UACC-62 [2]; read-out: pGI50 (converted),8.13 µM
same,CC50,UACC-62 [2]; [10],> 100 µM
same,TGI,UACC-62 [2]; read-out: pTGI (converted),> 100 µM
same,growth at 1 µM,OVCAR-4 [3],97%
same,growth at 0.01 µM,OVCAR-4 [4],106%
same,GI50,NCI-H460 [5]; read-out: GI50,5.17 µM
same,CC50,NCI-H460 [5]; [9],> 100 µM
same,TGI,NCI-H460 [5]; read-out: TGI,> 100 µM
same,GI50,NCI-H460 [5]; read-out: pGI50 (converted),5.13 µM
same,CC50,NCI-H460 [5]; [10],> 100 µM
same,TGI,NCI-H460 [5]; read-out: pTGI (converted),> 100 µM
same,growth at 0.1 µM,M14,93%
same,growth at 100 µM,NCI-H460 [6],30%
same,GI50,Malme-3M; read-out: GI50,> 100 µM
same,CC50,Malme-3M; [9],> 100 µM
same,TGI,Malme-3M; read-out: TGI,> 100 µM
same,GI50,Malme-3M; read-out: pGI50 (converted),> 100 µM
same,CC50,Malme-3M; [10],> 100 µM
same,TGI,Malme-3M; read-out: pTGI (converted),> 100 µM
same,GI50,K562; read-out: GI50,4.59 µM
same,LC50,K562; read-out: LC50,> 100 µM
same,TGI,K562; read-out: TGI,> 100 µM
same,GI50,K562; read-out: pGI50 (converted),4.68 µM
same,LC50,K562; read-out: pLC50 (converted),> 100 µM
same,TGI,K562; read-out: pTGI (converted),> 100 µM
same,growth at 1 µM,MOLT-4 [7],72%
same,growth at 0.1 µM,MDA-MB-231,90%
same,growth at 100 µM,HCT-15,28%
same,growth at 100 µM,HCC 2998,15%
same,growth at 1 µM,LOX IMVI,88%
same,growth at 100 µM,UACC-62 [8],40%
same,growth at 0.1 µM,NCI-H522,83%
same,growth at 1 µM,A549,75%
same,growth at 0.1 µM,NCI-H226,90%
same,growth at 1 µM,U-251,65%
same,GI50,KM12; read-out: GI50,4.53 µM
same,CC50,KM12; [9],> 100 µM
same,TGI,KM12; read-out: TGI,> 100 µM
same,GI50,KM12; read-out: pGI50 (converted),4.57 µM
same,CC50,KM12; [10],> 100 µM
same,TGI,KM12; read-out: pTGI (converted),> 100 µM
same,GI50,CCRF-CEM; read-out: GI50,4.38 µM
same,CC50,CCRF-CEM; [9],> 100 µM
same,TGI,CCRF-CEM; read-out: TGI,> 100 µM
same,GI50,CCRF-CEM; read-out: pGI50 (converted),4.37 µM
same,CC50,CCRF-CEM; [10],> 100 µM
same,TGI,CCRF-CEM; read-out: pTGI (converted),> 100 µM
same,growth at 100 µM,A498,59%
